Common to all, as to test: NCI-60 cell line screen, 48 h
The subject of experiment [1] is COLO 205 colon.
Experiment [2] relates to HCC-2998 colon.
In experiment [3] the test system is HCT-15 colon.
The test system of experiment [4] is NCI-H23 lung.
Experiment [5] has as its system NCI/ADR-RES ovarian.
In experiment [6] the test system is OVCAR-3 ovarian.
The subject of experiment [7] is SK-OV-3 ovarian.
Experiment [8] concerns SNB-75 CNS.
In experiment [9] the test system is SR leukemia.
Experiment [10] has as its system UO-31 renal.

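Interpolation was linear, between the two tested concentrations surrounding the appropriate level; five concentrations were tested over 48 hours in 96-well plates. Here, GI50 denotes the concentration required for 50% inhibition of growth. TGI is the concentration that stops growth completely.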

Turning to `O=S(=O)(O)c1cc(N=[N+]([O-])c2cc(S(=O)(=O)O)c3ccccc3c2)cc2ccccc12`, the TGI was > 100 µM in [1]; > 100 µM in [2]; > 100 µM in experiment [3]; 77 µM in [4]; > 100 µM in experiment [5]; 28.2 µM in experiment [6]. The TGI in experiment [7] was > 100 µM; in experiment [8], 30 µM; in [9], > 100 µM; in [10], 50.2 µM.

On to `COc1cc2c(cc1OCCCCCCCCN1C(=O)c3cccc4cccc(c34)C1=O)N=C[C@@H]1CCCN1C2=O`, for which the TGI in experiment [1] is 21.7 µM; in experiment [2], 30.7 µM; in experiment [3], 32.7 µM; in experiment [4], 36.3 µM; in experiment [5], 19.4 µM; in [6], 55.9 µM. Besides, the TGI in [7] was 9.72 µM; in experiment [8], 10.3 µM; in experiment [9], 21.7 µM; in experiment [10], > 100 µM.

For the compound `O=C1CC2(CCC(O)(c3cccs3)C(C(=O)c3cccs3)C2)C(=O)c2ccccc2N1` (stereo not given), the TGI in experiment [1], in experiment [2], in [3], in [4], in [5] and in experiment [6] was > 100 µM each time. Moreover, the TGI in experiment [7], in experiment [8], in [9] and in experiment [10] was > 100 µM in each case.

Take `O=c1c2ccccc2[nH]c(=S)n1-c1ccc(N=Nc2cccc3cc(O)ccc23)cc1`: the TGI in experiment [1], in experiment [2], in [3], in [4], in experiment [5] and in experiment [6] was > 100 µM in each case. Also, the TGI in experiment [7], in [8], in [9] and in experiment [10] was > 100 µM in each case.

On to `CCCN1C(=O)CSC1=Nc1ccc2cc3ccc(N=C4SCC(=O)N4CCC)cc3nc2c1`, for which the GI50 in [1] is > 100 µM; in experiment [2] it was > 100 µM; in experiment [3] it was > 100 µM; in [4], 71.1 µM; in experiment [5], 63.1 µM; in [6] it was 22 µM. Besides, the GI50 in experiment [7] was 39.4 µM; in [8] it was 22.3 µM; in experiment [9] it was 98.2 µM; in experiment [10], 41.1 µM. The TGI is > 100 µM in experiment [1]; > 100 µM in experiment [2]; > 100 µM in experiment [3]; > 100 µM in experiment [4]; > 100 µM in experiment [5]; 67.6 µM in [6]. In addition, the TGI in [7], in experiment [8], in experiment [9] and in experiment [10] was > 100 µM throughout.

For the compound `CSCCC(NC(=O)OCc1ccccc1)P(=O)(O)c1ccccc1` (stereo not given), the TGI in experiment [1], in experiment [2], in [3], in experiment [4], in [5] and in experiment [6] was > 100 µM throughout. Further, the TGI in experiment [7], in experiment [8], in experiment [9] and in experiment [10] was > 100 µM in each case.

With `COc1cc2c(cc1C)NC(=O)/C2=C/c1c(Cl)n(-c2ccccc2)c2ccccc12`, the TGI amounted to 18.5 µM in [1]; 24.2 µM in [2]; 67.3 µM in experiment [3]; 81.8 µM in experiment [4]; 67.7 µM in experiment [5]; 28 µM in [6]. For the same compound, the TGI is 69.7 µM in experiment [7], > 100 µM in experiment [8], 32.9 µM in experiment [9] and > 100 µM in [10].

With `Nc1cc(N2CCOCC2)nc(=O)n1-c1ccc(Cl)cc1`, the TGI in [1], in experiment [2], in experiment [3], in experiment [4], in experiment [5] and in experiment [6] was > 100 µM in each case. Further, the TGI in experiment [7], in experiment [8], in experiment [9] and in [10] was > 100 µM each time.

As for `Nc1ccc(Oc2ccc(C34CC5CC(C3)CC(c3ccc(Oc6ccc(N)cc6)cc3)(C5)C4)cc2)cc1`, the TGI in experiment [1] was > 58.7 µM; in [2] it was 19.3 µM; in experiment [3] it was > 63.9 µM; in experiment [4], 37.4 µM; in experiment [5] it was > 60.4 µM; in experiment [6], > 32.3 µM. Also, the TGI was > 70.1 µM in [7], 90.5 µM in [8], > 100 µM in [9] and > 53.4 µM in [10].

`C#C[C@]1(O)CC[C@H]2[C@@H]3CCC4=C/C(=N\OCCN(CC)CC)CC[C@]4(C)[C@H]3CC[C@@]21C`: the TGI in experiment [1] was determined as 11.5 µM; in experiment [2] it was 25.9 µM; in experiment [3], 25.3 µM; in [4], 19.7 µM; in experiment [5], 8.5 µM; in experiment [6] it was 8.91 µM. The TGI is 34.4 µM in experiment [7], 10.9 µM in experiment [8], > 31.3 µM in experiment [9] and 15.8 µM in [10].

`CCCCCOC(=O)c1cc2cc(CCl)ccc2oc1=O`: the TGI came to 16.3 µM in experiment [1]; 28.1 µM in experiment [2]; 35.4 µM in [3]; 17.2 µM in [4]; 53.3 µM in experiment [5]; 19.5 µM in [6]. For the same compound, the TGI was found to be 45 µM in experiment [7], 31.2 µM in [8], 67.5 µM in experiment [9] and 11.1 µM in experiment [10].

The record behind these values is PubChem BioAssay (NCI).
